Results on five compounds are retold here after US5814627A, “3, 5-disubstituted and 3, 4, 5-trisubstituted 2-isoxazolines and isoxazoles, process for their preparation and their use as pharmaceuticals” (Hoechst Aktienegesellschaft, priority 1994, dated 1998).

Where only a bound is given, the exact number is not on record here.

Test [1] relates to IL-1α release from mononuclear cells. As to the kind of experiment: Test 4: cytokine release from LPS-stimulated mononuclear cells, IL-1α. Type of test: cell-based. Particulars: Homo sapiens, 10 μM, read-out: Test 4 residual activity (IL-1α release), percent of control. How it is done:
Test 4. Stimulation of the cytokine release
Isolation of mononuclear cells from human blood
10 ml of human blood, stabilized with 1 ml of 3.8% sodium citrate solution, were diluted with 10 ml of PM16 (Serva, Heidelberg) and underlaid with 15 ml of Lymphoprep (Dr. Molter GmbH, Heidelberg). The samples were centrifuged, at room temperature for 40 minutes, at 400×g (1600 rpm, Minifuge 2, Heraeus, Osterode). The mononuclear cells are visible as a white ring at the Lymphoprep/plasma interface. This ring was carefully removed with a syringe, diluted with an equal volume of PM16, and centrifuged for 10 minutes at 400×g. The sediment was washed with approximately 10 ml of RPMI1640 (+300 mg/l L-glutamine, Gibco, Eggenstein) (Wallis, 1986). After the cells had been resuspended in approximately 1 ml of RPMI1640 (+300 mg/l L-glutamine+25 mM HEPES+100 μg/ml streptomycin+100 μg/ml penicillin), the cell density was determined using a Coulter Counter JT (Coulter Diagnostics) and adjusted to 5*10^6 /ml. Typically, the cells are composed of 90% lymphocytes and 10% monocytes.
230 μl of mononuclear cells were incubated, at 37° C.; 5% CO2 for 20-22 hours (5 hours in the case of IL-6), with 10 μl of test substance ([…]) and 10 μl of lipopolysaccharide (LPS; 500 μg dissolved in 1 ml of DMSO and diluted 1/10 with water prior to beginning the test; from Salmonella abortus equi, Sigma, Deisenhofen). The samples were cooled down to 0° C. in an ice bath and centrifuged in a Sigma centrifuge (2 minutes; 2000 rpm). Aliquots of the supernatant are measured with an ELISA (Biermann, Bad Nauheim). The abbreviation IL stands for interleukin and TNF for tumor necrosis factor alpha.
(§1) The values in the table show the concentration of the test substance which was employed in μM and, besides this, the residual activity measured in percent based on the control, which was set to be 100%. The interleukin is additionally indicated in test 4.

In test [2] the test system is polymorphonuclear leucocytes (PMNL). As to the kind of experiment: Test 2: Release of oxygen radicals from human PMNL. Type of test: cell-based. Particulars: read-out: Test 2 residual activity (release of oxygen radicals), percent of control. As for the experimental part:
Isolation of polymorphonuclear leucocytes (PMNL) from human peripheral blood for carrying out tests 1 and 2 10 ml of human blood were diluted with 10 ml of HBSS (Serva) and underlaid with 15 ml of Lymphoprep (Dr. Molter GmbH, Heidelberg). The sample was then centrifuged for 25 minutes at 400×g (1600 revolutions per minute, Minifuge 2, Heraeus, Osterode). […] A white ring, composed of mononuclear cells, is located between these two phases. The lowermost phase is composed of erythrocytes which are covered with a white layer of PMNL. The uppermost phase, and also the Lymphoprep and the white ring, were carefully removed using a syringe. The remaining sediment was carefully resuspended in 15 ml of 3% dextran in PM16 (mw: 485,000, Sigma, Deisenhofen). The suspension was then left to stand at room temperature for one hour. During this time, the erythrocytes sedimented while the PMNL remained in the supernatant. The supernatant was removed, diluted with an approximately equal volume of PM16, and centrifuged for 15 minutes at 400×g. Should the PMNL sediment be heavily contaminated with erythrocytes, it is necessary to carry out a hypotonic lysis. To do this, the sediment was resuspended in 750 μl of water. After exactly 15 seconds, the suspension was diluted with approximately 7 ml of PM16 and centrifuged for 10 minutes at 400×g. If necessary, this lysis was repeated once more. Otherwise, the PMNL sediment was resuspended in a suitable medium.
The PMNL were resuspended (5·10^6 cells/ml) in Dulbecco's PBS, supplemented with 7.5 mM glucose. Care must be taken to ensure that the PMNL are free of erythrocytes. 100 μl of PMNL, 700 μl of PBS+glucose and 100 μl of cytochrome C (9.38 mg/ml of PBS+glucose) were mixed in a semi-microcuvette. 100 μl of PMNL, 500 μl of PBS+glucose, 100 μl of cytochalasin B ([…]), 100 μl of TNF (0.05 ng) and 100 μl of cytochrome C (9.38 mg/ml of PBS+glucose) were mixed for the fMLP-induced release of oxygen. Measurements were made in a double-beam photometer meter (Perkin-Elmer 552 S) at a wavelength of 550 nm. The measurement range is 0-1 extinction units. The cuvettes were temperature-equilibrated to 37° C. The reference cuvette additionally contained 10 μl of SOD (6 mg of SOD/ml of PBS+glucose). Following a preincubation of 5 minutes, the reaction is started with 100 μl of inducer. The reaction is started with 1·10^-7 mol of fMLP.
as §1

In test [3] the test system is tumor cell line 20-10-5S (hybridoma cell line). Kind of test: Test 8: Inhibition of tumor cell proliferation. Type of test: cell-based. Particulars: 48 h + 16 h tritiated thymidine incorporation; 20-10-5S cells. In general terms: Dividing cells build labelled thymidine or BrdU into new DNA.
Description: The tumor cell line 20-10-5S (hybridoma cell line, supplied by ATCC (American Type Culture Collection)), which produces an antibody against mouse T cells) was used for determining the antiproliferative property of test substances. The cells were cultured, at 37° C. and 5% C2, under serum-free conditions in CG medium (cell-growth medium=Iscove-ATL (+albumin+transferrin+lipids); from Vitromex, Vilshofen). Only cells which were in the logarithmic phase of growth were used for the test mixture. The test substances were pipetted in various concentrations (from 1 to 50 μM), together with 4×10^3 20-10-5S cells, into round-bottomedmicrotiter plates (total volume with medium, 200 μl). After an incubation time of 48 h (37° C. and 5% CO2), 25 μl of tritiated thymidine (=0.25 μCi/test mixture, specific activity, 23 Ci/mM) were added to the plates. During the subsequent 16 h, the radioactively labeled thymidine was incorporated into the DNA of the growing cells. The samples were filtered off with suction on glass fiber filters and the incorporated radioactivity was measured using a β counter (Beta Plate System 1205 from Wallac).
Test [4] relates to cyclooxygenase-dependent thrombocyte aggregation. As to the kind of experiment: Test 5: Cyclooxygenase-dependent thrombocyte aggregation. Type of test: cell-based, human. Particulars: Homo sapiens, arachidonic acid as inducer, read-out: Test 5 residual activity (cyclooxygenase-dependent thrombocyte aggregation), percent of control. The procedure, abridged:
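Citrated human platelet-rich plasma was preincubated 10 min at 37 °C with test substance diluted 1:30 in 50 mM Tris-HCl pH 8.0, 90 mM NaCl. Aggregation was triggered with arachidonic acid (5 mg/ml, 20 μl) under 800 rpm stirring in an aggregometer. Values are tested concentration (μM) and residual activity as % of control.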

Test [5] deals with PAF-induced asthma attack. As to the kind of experiment: Test 7: antiasthmatic effect, PAF-induced asthma attack. The test is classed as in vivo. Particulars: Cavia porcellus; i.d., 15 minutes before PAF; guinea pig. In outline:
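Anesthetized guinea pigs given PAF through a jugular vein cannula; test compounds dosed i.v. through the same cannula 5 min before PAF, or intraduodenally via surgical cannula 15 min before. Bronchial width recorded by overflow pneumonogram before and after dosing; ED50 in mg/kg i.d. against the PAF-induced attack.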

For `CC(C)(C)c1cc(C2CC(CCC(=O)O)=NO2)cc(C(C)(C)C)c1O` (centres unmarked) [Example 63, 5-(4-Hydroxy-3,5-di-tert-butylphenyl)-2-isoxazolin-3-ylpropionic acid], the activity at 10 µM in test [1] was determined as 75%. In addition, the activity at 50 µM in test [2] stood at 79%.

As for `CCOC(=O)CNC(=O)OCCCc1cc(-c2cc(C(C)(C)C)c(O)c(C(C)(C)C)c2)no1` [Example 41, N-(3-(4-Hydroxy-3,5-di-tert-butylphenyl)isoxazol-5-ylpropoxycarbonyl)glycine ethyl ester], the IC50 in test [3] is less than 5 µM. In test [2], the activity at 5 µM amounted to 75% and the activity at 50 µM is 36%. The activity at 100 µM in test [4] came out at 95%.

The compound `CC(C)(C)c1cc(C2=NOC(c3ccccn3)C2)cc(C(C)(C)C)c1O` (centres unmarked) [Example 9] gave an ED50 in test [5] of approximately 50 mg/kg. Further, the activity at 100 µM in test [4] worked out at 92%.

Take `CC(O)c1cc(-c2cc(C(C)(C)C)c(O)c(C(C)(C)C)c2)no1` (centres unmarked) [Example 28]: the IC50 in test [3] was less than 5 µM. Also, the activity at 10 µM in test [1] amounted to 93%; in test [2] (10 μM), 60%; in test [4] (10 μM), 93%. For the same compound, in test [2] (25 μM), the activity at 25 µM turned out to be 8%.

Turning to `CC(C)(C)c1cc(-c2cc(CNS(=O)(=O)C(F)(F)F)on2)cc(C(C)(C)C)c1O` [Example 49, N-(3-(4-Hydroxy-3,5-di-tert-butylphenyl)isoxazol-5-ylmethyl)trifluoromethanesulfonamide], the ED50 in test [5] was approximately 50 mg/kg. The IC50 in test [3] was in the range of 5 to 10 µM. Also, in test [2], the activity at 5 µM was 80% and the activity at 50 µM was determined as 12%.

The IC50 is the concentration that inhibits the measured activity by half. In general, ED50 refers to the dose that gives a 50% effect, or the effect in half of the subjects.
